Tested on: DNA substrate containing the NFkβ consensus sequence
Assay: DNase protection assay for DNA-protein interactions (ECL)
Format: binding
Description: This example illustrates the use of the invention to measure protein-DNA interactions, specifically, the binding of the transcription factor NFkβ with its consensus DNA sequence. A schematic depicting the assay format can be found in the detailed description of the invention. DNAse 1 and NFkβ were purchased from Promega Corp. A DNA substrate containing a consensus DNA sequence for NFk was prepared by Midland Certified Reagent Co. by solid phase synthesis. The sequence of the substrate is shown below. The nucleotides shown in brackets were linked by phosphorothioate linkages; the other linkages were standard phosphodiester bonds. […]
The labeled DNA substrate (50 fmol), poly dI-dC (1 ug, to reduce non-specific protein-DNA interactions) and varying amounts of recombinant NFkβ (p50 subunit) were combined in a 20 uL volume and incubated for 30 min. at room temperature. […] The reaction mixture was introduced into an ORIGEN Analyzer (IGEN International) running in Magnetic Capture Mode and the ECL signal from RuBpy on the magnetic beads was determined in the presence of a solution containing tripropylamine (ORIGEN Assay Buffer, IGEN International). […]
The specificity of the assay was determined by replacing the specific binding protein NFkβ with other DNA binding proteins specific for sequences not present on the DNA substrate (the phosphorothioate containing substrate was used).

ECL Signal (specificity test, DNase added, phosphorothioate containing NFkβ consensus substrate): 32289
Substance: AP-2: DNA binding protein specific for sequences not present on the DNA substrate
nuclease protection of the DNA substrate containing the NFkβ consensus sequence (in words): no ability to protect against nuclease attack
